# Measurements reported in patent US10702475B2, “Liposome containing compositions and their use in personal care and food products” (priority 2017, dated 2020).
# Assay: Evaluation of polyglyceryl ester surfactants for structuring a liposome
# Format: physicochemical
# Conditions: class given by column head
# Procedure: A series of polyglyceryl ester surfactants were evaluated to identify those capable of structuring a liposome. These reveal that liposome formation requires from 8 to 12 units of glycerol and a di-ester of C14-C18 fatty acid to establish a liposomal structure.
row,"structure formed by the surfactant (O/W emulsion, liposome or W/O emulsion)",Substance
1,forms liposomes,Polyglyceryl-10 Dioleate
2,forms O/W emulsions,Polyglyceryl-10 Mono/Dioleate
